Activity calls are given as the source filed them. No cut-off for these calls is given here.
Experiments:
Type in all cases: functional
Daucus carota [1] = assay: Phytotoxicity against Daucus carota (carrot) cells grown in culture assessed as lipid peroxidation at 1 mM after 4 to 6 days by TBARS method relative to control
Daucus carota [2] = assay: Phytotoxicity against Daucus carota (carrot) cells grown in culture assessed as melanin per packed cell volume at 1 mM after 6 days by spectrophotometric analysis in presence of ascorbic acid (reference value: 27.2 ug per packed cell volume)
Daucus carota [3] = assay: Phytotoxicity against Daucus carota (carrot) cells grown in culture assessed as lipid peroxidation at 1 mM after 2 days by TBARS method relative to control
Daucus carota [4] = assay: Phytotoxicity against Daucus carota (carrot) cells grown in culture assessed as melanin per packed cell volume at 1 mM after 4 days by spectrophotometric analysis (reference value: 21.3 ug per packed cell volume)
Daucus carota [5] = assay: Phytotoxicity against Daucus carota (carrot) cells grown in culture assessed as growth inhibition at 1 mM after 2 to 6 days in presence of SOD relative to control
Daucus carota [6] = assay: Phytotoxicity against Daucus carota (carrot) cells grown in culture assessed as growth inhibition at 0.1 mM after 2 days relative to control; details: 48 h, values are per cent of control
Daucus carota [7] = assay: Phytotoxicity against Daucus carota (carrot) cells grown in culture assessed as increase in ROS level at 1 mM after 24 hr by MPEC-based chemiluminescence assay in presence of catalase relative to control
Daucus carota [8] = assay: Phytotoxicity against Daucus carota (carrot) cells grown in culture assessed as melanin per packed cell volume at 1 mM after 2 days by spectrophotometric analysis in presence of ascorbic acid (reference value: 23.7 ug per packed cell volume)
Daucus carota [9] = assay: Phytotoxicity against Daucus carota (carrot) cells grown in culture assessed as increase in ROS level after 24 hr by MPEC-based chemiluminescence assay relative to control
Daucus carota [10] = assay: Phytotoxicity against Daucus carota (carrot) cells grown in culture assessed as melanin per packed cell volume at 1 mM after 4 days by spectrophotometric analysis in presence of ascorbic acid (reference value: 21.3 ug per packed cell volume)
Daucus carota [11] = assay: Phytotoxicity against Daucus carota (carrot) cells grown in culture assessed as melanin per packed cell volume at 1 mM after 6 days by spectrophotometric analysis in presence of alpha-tocopherol (reference value: 27.2 ug per packed cell volume)
Daucus carota [12] = assay: Phytotoxicity against Daucus carota (carrot) cells grown in culture assessed as growth inhibition at 1 mM after 4 days in presence of ascorbic acid relative to control
Daucus carota [13] = assay: Phytotoxicity against Daucus carota (carrot) cells grown in culture assessed as growth inhibition at 1 mM after 4 days relative to control; details: 96 h, values are per cent of control
Daucus carota [14] = assay: Phytotoxicity against Daucus carota (carrot) cells grown in culture assessed as growth inhibition at 1 mM after 8 days relative to control; details: 192 h, values are per cent of control
Daucus carota [15] = assay: Phytotoxicity against Daucus carota (carrot) cells grown in culture assessed as growth inhibition at 1 mM after 2 to 6 days in presence of catalase relative to control
Daucus carota [16] = assay: Phytotoxicity against Daucus carota (carrot) cells grown in culture assessed as melanin per packed cell volume at 0.1 mM after 6 days by spectrophotometric analysis (reference value: 27.2 ug per packed cell volume)
Daucus carota [17] = assay: Phytotoxicity against Daucus carota (carrot) cells grown in culture assessed as melanin per packed cell volume at 0.1 mM after 2 days by spectrophotometric analysis (reference value: 23.7 ug per packed cell volume)
Daucus carota [18] = assay: Phytotoxicity against Daucus carota (carrot) cells grown in culture assessed as increase in ROS level at 1 mM after 24 hr by MPEC-based chemiluminescence assay in presence of SOD relative to control
Daucus carota [19] = assay: Phytotoxicity against Daucus carota (carrot) cells grown in culture assessed as growth inhibition at 0.1 mM after 8 days relative to control; details: 192 h, values are per cent of control
Daucus carota [20] = assay: Phytotoxicity against Daucus carota (carrot) cells grown in culture assessed as lipid peroxidation at 1 mM after 2 days by TBARS method in presence of alpha-tocopherol relative to control
Daucus carota [21] = assay: Phytotoxicity against Daucus carota (carrot) cells grown in culture assessed as melanin per packed cell volume at 1 mM after 6 days by spectrophotometric analysis (reference value: 27.2 ug per packed cell volume)
Daucus carota [22] = assay: Phytotoxicity against Daucus carota (carrot) cells grown in culture assessed as melanin per packed cell volume at 1 mM after 2 days by spectrophotometric analysis (reference value: 23.7 ug per packed cell volume)
Daucus carota [23] = assay: Phytotoxicity against Daucus carota (carrot) cells grown in culture assessed as lipid peroxidation at 1 mM after 2 days by TBARS method in presence of ascorbic acid relative to control
Daucus carota [24] = assay: Phytotoxicity against Daucus carota (carrot) cells grown in culture assessed as growth inhibition at 1 mM after 2 days relative to control; details: 48 h, values are per cent of control
Daucus carota [25] = assay: Phytotoxicity against Daucus carota (carrot) cells grown in culture assessed as growth inhibition at 1 mM after 6 days in presence of ascorbic acid relative to control
Daucus carota [26] = assay: Phytotoxicity against Daucus carota (carrot) cells grown in culture assessed as melanin per packed cell volume at 1 mM after 4 days by spectrophotometric analysis in presence of alpha-tocopherol (reference value: 21.3 ug per packed cell volume)
Daucus carota [27] = assay: Phytotoxicity against Daucus carota (carrot) cells grown in culture assessed as growth inhibition at 1 mM after 2 to 6 days in presence of alpha-tocopherol relative to control
Daucus carota [28] = assay: Phytotoxicity against Daucus carota (carrot) cells grown in culture assessed as melanin per packed cell volume at 1 mM after 2 days by spectrophotometric analysis in presence of alpha-tocopherol (reference value: 23.7 ug per packed cell volume)
Daucus carota [29] = assay: Phytotoxicity against Daucus carota (carrot) cells grown in culture assessed as growth inhibition at 1 mM after 6 days relative to control; details: 144 h, values are per cent of control
Daucus carota [30] = assay: Phytotoxicity against Daucus carota (carrot) cells grown in culture assessed as growth inhibition at 0.1 mM after 6 days relative to control; details: 144 h, values are per cent of control
Daucus carota [31] = assay: Phytotoxicity against Daucus carota (carrot) cells grown in culture assessed as growth inhibition at 1 mM after 2 days in presence of ascorbic acid relative to control
Daucus carota [32] = assay: Phytotoxicity against Daucus carota (carrot) cells grown in culture assessed as growth inhibition at 0.1 mM after 4 days relative to control; details: 96 h, values are per cent of control
Daucus carota [33] = assay: Phytotoxicity against Daucus carota (carrot) cells grown in culture assessed as melanin per packed cell volume at 0.1 mM after 4 days by spectrophotometric analysis (reference value: 21.3 ug per packed cell volume)
Daucus carota [34] = assay: Phytotoxicity against Daucus carota (carrot) cells grown in culture assessed as increase in ROS level at 1 mM after 24 hr by MPEC-based chemiluminescence assay in presence of ascorbic acid relative to control

N[C@@H](Cc1ccc(O)c(O)c1)C(=O)O [LEVODOPA]
Activity (Daucus carota [1]): inactive
Activity (Daucus carota [2]): 28.2 µg
Activity (Daucus carota [3]): Active
Activity (Daucus carota [4]): 42.8 µg
Activity (Daucus carota [5]): Active
growth, % of control at 100 µM (Daucus carota [6]): 84.7%
Activity (Daucus carota [7]): Active
Activity (Daucus carota [8]): 17.9 µg
Activity (Daucus carota [9]): Active
Activity (Daucus carota [10]): 22.9 µg
Activity (Daucus carota [11]): 28.1 µg
Activity (Daucus carota [12]): inactive
growth, % of control at 1000 µM (Daucus carota [13]): 59.6%
growth, % of control at 1000 µM (Daucus carota [14]): 64.9%
Activity (Daucus carota [15]): Active
Activity (Daucus carota [16]): 32.2 µg
Activity (Daucus carota [17]): 26.8 µg
Activity (Daucus carota [18]): Active
growth, % of control at 100 µM (Daucus carota [19]): 83.7%
Activity (Daucus carota [20]): inactive
Activity (Daucus carota [21]): 66.1 µg
Activity (Daucus carota [22]): 28.4 µg
Activity (Daucus carota [23]): inactive
growth, % of control at 1000 µM (Daucus carota [24]): 62%
Activity (Daucus carota [25]): inactive
Activity (Daucus carota [26]): 27.4 µg
Activity (Daucus carota [27]): inactive
Activity (Daucus carota [28]): 27.9 µg
growth, % of control at 1000 µM (Daucus carota [29]): 60.9%
growth, % of control at 100 µM (Daucus carota [30]): 80.9%
Activity (Daucus carota [31]): inactive
growth, % of control at 100 µM (Daucus carota [32]): 88.2%
Activity (Daucus carota [33]): 31.7 µg
Activity (Daucus carota [34]): inactive

Reference: ChEMBL document CHEMBL3044527, “Involvement of melanin synthesis and reactive oxygen species in phytotoxic action of l-DOPA in carrot cells” (2007)
